The results in this text go back to patent publication US11554124B2, “Hematopoiesis-enhancing agent” (priority 2018, dated 2023).

Data set [1] in a line: Complete blood count of peripheral blood of treated mice. It is filed as in vivo. The following applies: CLEU 50 mg/body i.p. The method, then:
Wild-type mice with a genetic background of C57BL/6J were purchased from Charles River Laboratories, Inc. Mice at 8 to 14 weeks of age were used for analysis. For CLEU treatment (50 mg/body), a solution of cycloleucine (CLEU) was prepared by diluting cycloleucine (CLEU) (Sigma) in PBS (50 mg/ml), and 1 ml of the CLEU solution was administered intraperitoneally. For AKBA treatment (2 mg/body), 2 mg AKBA (Enzo Life Sciences)/20% DMSO/1 mL PBS solution was administered intraperitoneally. Vehicle without AKBA was used as a control. For measuring complete blood count of peripheral blood, peripheral blood was collected from facial veins and counted by use of an automated animal blood cell counter (microsemi LC-662). All of the experiments conducted in this study were approved by the Animal Experiment Committee of the Environmental Safety Committee of Tohoku University.

The subject of another data set is DNA CpG methylation. The data set can be described thus: Whole genome bisulfite sequencing (WGBS) of bone marrow erythroblast subset II. The note with it: CLEU, BM erythroblast subset II, Day 2, vs PBS. It is filed as in vivo, mouse. The procedure:
DNA was isolated by using phenol/chloroform extraction from sorted sample of bone marrow subset II erythroblasts (PBS; n=2, CLEU; n=2). DNA quality control, bisulfite conversion, library preparation, high-throughput sequencing, and data mapping were performed at Macrogen, Inc. Briefly, TruSeq DNA Methylation Kit and EZ DNA Methylation Gold (Illumina and Zymo Research) were used for library preparation according to the manufacturer's protocol (TruSeq DNA Methylation Library Preparation Guide), followed by high-throughput sequencing by HiseqX (Illumina). After the sequencing run, the raw sequence reads were filtered based on quality, and the adapter sequences were trimmed off. The remaining reads are mapped to the reference genome (mm9) using BSMAP based on SOAP (Short Oligo Alignment Program). SAMBAMBA version 0.5.9 was used to remove index and PCR duplicates, and to select reads with modification. Methylation level was calculated for every single cytosine from mapping results using BSMAP version 2.87. Only cytosine positions with >=5 reads coverage were used for further analysis.
The overall transcriptional changes observed as above could be attributed to epigenetic modification changes due to the reduced abundance of intracellular SAM (Panel A of FIG. 2). […]

In data set [2] the test system is human cord blood CD34+ cells. The data set can be described thus: In vitro erythroid differentiation of human CD34+ umbilical cord blood cells. It is filed as cell-based. The following applies: CLEU 2.5 mg/ml, differentiation medium 7 days. The procedure: Human CD34^+ umbilical cord blood cells were obtained from the Kanto Koshinetsu Block Blood Center (Tokyo, Japan). The use of cord blood samples for research purposes was approved by the Tohoku University Ethics Committee. The technical details of this method have been described previously. Briefly, CD34^+ umbilical cord blood cells were cultured in growth medium for 5 days, and subsequently, the cells (1×10^5/ml) were cultured in differentiation medium for 7 days. For treatment with CLEU, the concentration thereof was 2.5 mg/ml. As the growth medium, StemMACS HSC Expansion Media XF, human (MACS), supplemented with StemMACS HSC Expansion Cocktail, human (MACS) was used. As the differentiation medium, StemSpan SFEM (STEMCELL) supplemented with hSCF (100 ng/ml; Peprotech), hFLT3-L (33.3 ng/ml; Peprotech), hIL3 (13.3 ng/ml; Peprotech), hBMP4 (13.3 ng/ml; Peprotech), hEPO (2.67 IU/ml; Kyowa Kirin Co., Ltd.), and hydrocortisone (1 μM; Sigma) was used.
Finally, the effect of CLEU on in vitro erythroid cell differentiation conditions of human cord blood CD34^+ cells was investigated.

The next data set concerns erythropoietin. Nature of the data set: Serum erythropoietin levels determined by ELISA. It is filed as in vivo, mouse. The following applies: CLEU 50 mg/body i.p., vs PBS. An excerpt: FIG. 2 is the experimental result showing that a significant erythropoiesis was induced independently of erythropoietin as a result of SAM reduction by CLEU. Panel A: Abundance of SAM in cells selected from bone marrow subset II treated with PBS or CLEU (Day 2). Panel B: Peripheral blood hemoglobin concentration on the days indicated after PBS or CLEU treatment. Panel C: Total bone marrow cells harvested from the left and right femur and tibiae of PBS or CLEU treated mouse (Day 2). Panel D: Representative image (photograph) of tibia of PBS or CLEU treated mouse (Day 2). Panels E and F: Matured bone marrow cells from each group analyzed by flow cytometry (Day 2). Representative results of flow cytometric analysis are shown in Panel E. Cumulative cell numbers in each of the indicated groups are shown in F. Red blood cell (Ter119^+ Gr1^− B220^− CD4^− CD8^−), myeloid (Gr1^+ Ter119^− B220^− CD4^− CD8^−), and B cells (B220^+ Ter119^− Gr1^− CD4^− CD8^−). Panels G and H: Numbers of bone marrow erythroblasts in each of the subsets analyzed by flow cytometry (Day 2). […] Panel L: Serum erythropoietin levels determined by ELISA. […] For measuring complete blood count of peripheral blood, peripheral blood was collected from facial veins and counted by use of an automated animal blood cell counter (microsemi LC-662). […]
A general note: In an ELISA, binding on a coated surface is turned into a signal by an enzyme label.

For the molecule `NC1(C(=O)O)CCCC1` [CLEU, cycloleucine], in data set [1] (Days 1-6, vs PBS), the hematocrit result is reported as “marked increase”, the platelet counts result is reported as “no particularly consistent differences”, the red blood cells entry was “marked increase” and the “white blood cell counts” value is given as “no particularly consistent differences”. Moreover, the hemoglobin levels entry in data set [1] (peripheral blood, vs PBS) is listed as “marked increase”. In the data set on DNA CpG methylation, the “reduction of DNA CpG methylation overall” value is “about 2%”. The “erythroid differentiation and maturation of human cord blood CD34+ cells” value in data set [2] is given as “induce not only erythroid differentiation but also maturation”. Besides, the serum erythropoietin levels entry in the data set on erythropoietin was “significantly down-regulated”.
